Results as given in ChEMBL document CHEMBL3875159, “High-affinity small molecular blockers of mixed lineage leukemia 1 (MLL1)-WDR5 interaction inhibit MLL1 complex H3K4 methyltransferase activity” (Eur J Med Chem, 2016).

What was measured:
[1] = biological target: WD repeat-containing protein 5 (Homo sapiens, UniProt P61964); assay: Inhibition of 10mer-Thr-FAM probe binding to human WDR5 after 2 hrs by fluorescence polarization assay
[2] = Antiproliferative activity against human MV4-11 cells harboring MLL-AF4 fusion protein after 72 hrs by CCK8 assay; type: functional, cell-based; conditions: MV4-11, 72 h

## Cc1c(F)c([N+](=O)[O-])cc(C(=O)Nc2cc(-c3ccncc3)ccc2N2CCN(C)CC2)c1Cl
[1]
  IC50: 77.1 nM

## Cc1c(F)ccc(C(=O)Nc2cc([N+](=O)[O-])ccc2NCCN2CCCC2)c1Cl
[1]
  IC50: > 20000 nM

## Cc1c(F)c(N)cc(C(=O)Nc2cc(-c3ccc(NC(=O)C(C)C)cc3)ccc2N2CCN(C)CC2)c1Cl
[2]
  IC50: 4500 nM
[1]
  IC50: 95.6 nM

## CN1CCN(c2ccc(-c3ccc([N+](=O)[O-])cc3)cc2NC(=O)c2cccc([N+](=O)[O-])c2)CC1
[1]
  IC50: 285 nM

## Cc1c(F)c(N)cc(C(=O)Nc2cc(-c3ccc(NC(=O)CCN)cc3)ccc2N2CCN(C)CC2)c1Cl
[2]
  IC50: 25100 nM
[1]
  IC50: 50.2 nM

## Cc1c(F)c(N)cc(C(=O)Nc2cc(-c3ccc(NC(=O)CCCNC(=O)OC(C)(C)C)cc3)ccc2N2CCN(C)CC2)c1Cl
[2]
  IC50: 4800 nM
[1]
  IC50: 80.4 nM

## CN1CCN(c2ccc(-c3ccncc3)cc2NC(=O)c2ccc(F)c([N+](=O)[O-])c2)CC1
[1]
  IC50: 198 nM

## COC(=O)c1ccc(-c2ccc(N3CCN(C)CC3)c(NC(=O)c3cc([N+](=O)[O-])c(F)c(C)c3Cl)c2)cc1
[1]
  IC50: 92.5 nM

## CCCC(=O)Nc1ccc(-c2ccc(N3CCN(C)CC3)c(NC(=O)c3cc(N)c(F)c(C)c3Cl)c2)cc1
[2]
  IC50: 2300 nM
[1]
  IC50: 76 nM

## CC(=O)Nc1cc(C(=O)Nc2cc(-c3ccc(N)cc3)ccc2N2CCN(C)CC2)c(Cl)c(C)c1F
[1]
  IC50: 3190 nM

## Cc1c(F)c([N+](=O)[O-])cc(C(=O)Nc2cc(-c3ccc([N+](=O)[O-])cc3)ccc2N2CCN(C)CC2)c1Cl
[1]
  IC50: 285 nM

## CC(=O)Nc1cc(C(=O)Nc2cc(-c3ccncc3)ccc2N2CCN(C)CC2)c(Cl)c(C)c1F
[1]
  IC50: 1360 nM

## Cc1c(F)c(N)cc(C(=O)Nc2cc(-c3ccc(NC(=O)CNC(=O)OC(C)(C)C)cc3)ccc2N2CCN(C)CC2)c1Cl
[2]
  IC50: 4100 nM
[1]
  IC50: 1550 nM

## CC(=O)Nc1ccc(-c2ccc(N3CCN(C)CC3)c(NC(=O)c3cc(N)c(F)c(C)c3Cl)c2)cc1
[2]
  IC50: 12500 nM
[1]
  IC50: 70.1 nM

## CC(=O)Nc1cc(C(=O)Nc2cc(-c3ccc([N+](=O)[O-])cc3)ccc2N2CCN(C)CC2)c(Cl)c(C)c1F
[1]
  IC50: > 20000 nM

## Cc1c(F)c(N)cc(C(=O)Nc2cc(-c3ccc(NC(=O)C4CCCCC4)cc3)ccc2N2CCN(C)CC2)c1Cl
[2]
  IC50: 3800 nM
[1]
  IC50: 341 nM

## Cc1c(F)c(N)cc(C(=O)Nc2cc(-c3ccc(NC(=O)CC(C)C)cc3)ccc2N2CCN(C)CC2)c1Cl
[2]
  IC50: 3900 nM
[1]
  IC50: 105 nM

## Cc1c(F)c(N)cc(C(=O)Nc2cc(-c3ccc(NC(=O)CCNC(=O)OC(C)(C)C)cc3)ccc2N2CCN(C)CC2)c1Cl
[2]
  IC50: 4600 nM
[1]
  IC50: 102 nM

## CN1CCN(c2ccc(-c3ccc(N)cc3)cc2NC(=O)c2cccc(N)c2)CC1
[1]
  IC50: > 20000 nM
